Conditions: 303.16 K, Liquid, Vibrating tube method

CCCCCCCCCC [decane]
Conditions	mass density [kg/m3]
9263 kPa	729.6
9277 kPa	729.6
9288 kPa	729.7
9302 kPa	729.7
9321 kPa	729.7
9332 kPa	729.7
9348 kPa	729.7
9360 kPa	729.7
9372 kPa	729.7
9392 kPa	729.7
9407 kPa	729.8
9419 kPa	729.8
9433 kPa	729.7
9449 kPa	729.9
9461 kPa	729.8
9473 kPa	729.8
9491 kPa	729.7
9509 kPa	729.9
9521 kPa	729.8
9535 kPa	729.8
9552 kPa	729.9
9566 kPa	729.8
9581 kPa	729.7
9595 kPa	729.9
9608 kPa	729.9
9624 kPa	729.9
9639 kPa	729.8
9655 kPa	729.9
9672 kPa	730
9685 kPa	729.8
9704 kPa	729.9
9725 kPa	730
9738 kPa	730
9754 kPa	730
9767 kPa	730.2
9778 kPa	730
9793 kPa	730.1
9808 kPa	729.9
9820 kPa	730
9831 kPa	730.1
9841 kPa	730.1
9855 kPa	730.1
9870 kPa	730.1
9881 kPa	730.2
9900 kPa	730.1
9913 kPa	730.1
9921 kPa	730.2
9935 kPa	730.2
9946 kPa	730.2
9956 kPa	730.2
9969 kPa	730.2
9979 kPa	730.1
9992 kPa	730.3
10003 kPa	730.3
10021 kPa	730.1
10032 kPa	730.2
10048 kPa	730.2
10090 kPa	730.4
10106 kPa	730.3
10117 kPa	730.4
10132 kPa	730.2
10145 kPa	730.3
10164 kPa	730.3
10176 kPa	730.5
10188 kPa	730.3
10206 kPa	730.3
10221 kPa	730.3
10231 kPa	730.4
10246 kPa	730.4
10276 kPa	730.4
10289 kPa	730.5
10302 kPa	730.4
10318 kPa	730.5
10331 kPa	730.4
10343 kPa	730.5
10358 kPa	730.5
10374 kPa	730.4
10385 kPa	730.4
10401 kPa	730.6
10414 kPa	730.4
10432 kPa	730.6
10446 kPa	730.4
10458 kPa	730.6
10475 kPa	730.6
10487 kPa	730.5
10499 kPa	730.6
10515 kPa	730.7
10527 kPa	730.7
10545 kPa	730.6
10562 kPa	730.7
10574 kPa	730.6
10584 kPa	730.6
10602 kPa	730.7
10616 kPa	730.7
10630 kPa	730.7
10646 kPa	730.7
10659 kPa	730.7
10672 kPa	730.6
10688 kPa	730.8
10707 kPa	730.8
10717 kPa	730.7
10729 kPa	730.8
10748 kPa	730.7
10765 kPa	730.9
10779 kPa	730.7
10791 kPa	730.8
10806 kPa	730.8
10823 kPa	730.8
10836 kPa	730.7
10856 kPa	730.8
10873 kPa	730.9
10886 kPa	731
10904 kPa	731
10917 kPa	731.1
10937 kPa	730.9
10954 kPa	731
10969 kPa	730.8
10986 kPa	731
11001 kPa	730.9
11014 kPa	731
11030 kPa	731.1
11049 kPa	731
11062 kPa	730.9
11082 kPa	731
11102 kPa	731.1
11116 kPa	731.1
11133 kPa	731
11149 kPa	731
11162 kPa	731
11186 kPa	731.1
11200 kPa	731.1
11216 kPa	731.1
11234 kPa	731.2
11257 kPa	731.1
11275 kPa	731.2
11291 kPa	731.2
11312 kPa	731.2
11330 kPa	731.2
11347 kPa	731.2
11365 kPa	731.2
11379 kPa	731.1
11396 kPa	731.2
11417 kPa	731.3
11436 kPa	731.3
11452 kPa	731.4
11469 kPa	731.4
11485 kPa	731.3
11504 kPa	731.4
11519 kPa	731.2
11533 kPa	731.3
11553 kPa	731.3
11570 kPa	731.4
11589 kPa	731.5
11609 kPa	731.2
11623 kPa	731.4
11643 kPa	731.3
11660 kPa	731.4
11677 kPa	731.5
11695 kPa	731.6
11712 kPa	731.6
11732 kPa	731.5
11749 kPa	731.5
11762 kPa	731.6
11782 kPa	731.5
11797 kPa	731.5
11820 kPa	731.6
11843 kPa	731.7
11858 kPa	731.6
11881 kPa	731.7
11901 kPa	731.7
11916 kPa	731.7
11942 kPa	731.6
11962 kPa	731.7
11978 kPa	731.6
11996 kPa	731.6
12012 kPa	731.6
12034 kPa	731.8
12055 kPa	731.8
12070 kPa	731.8
12097 kPa	731.7
12118 kPa	731.7
12135 kPa	731.8
12159 kPa	731.8
12183 kPa	731.9
12196 kPa	731.9
12215 kPa	731.9
12234 kPa	731.7
12254 kPa	731.8
12270 kPa	731.9
12289 kPa	731.9
12305 kPa	732
12321 kPa	732.1
12346 kPa	731.9
12371 kPa	732
12391 kPa	732.1
12410 kPa	732.1
12430 kPa	731.9
12452 kPa	732.1
12470 kPa	732.1
12489 kPa	732.1
12509 kPa	732
12535 kPa	732.1
12555 kPa	732
12575 kPa	732.1
12592 kPa	732.2
12618 kPa	732.2
12635 kPa	732.1
12653 kPa	732.1
12679 kPa	732.2
12702 kPa	732.3
12723 kPa	732.2
12747 kPa	732.3
12767 kPa	732.3
12785 kPa	732.3
12809 kPa	732.2
12833 kPa	732.2
12850 kPa	732.4
12872 kPa	732.4
12896 kPa	732.5
12917 kPa	732.4
12942 kPa	732.3
12960 kPa	732.4
12984 kPa	732.4
13003 kPa	732.3
13025 kPa	732.5
13047 kPa	732.5
13074 kPa	732.6
13102 kPa	732.6
13121 kPa	732.4
13143 kPa	732.6
13165 kPa	732.5
13187 kPa	732.5
13210 kPa	732.5
13232 kPa	732.6
13251 kPa	732.6
13274 kPa	732.8
13296 kPa	732.7
13316 kPa	732.6
13344 kPa	732.6
13373 kPa	732.6
13393 kPa	732.7
13422 kPa	732.8
13451 kPa	732.7
13471 kPa	732.9
13501 kPa	732.8
13528 kPa	732.7
13551 kPa	732.8
13581 kPa	732.8
13605 kPa	732.9
13631 kPa	732.9
13656 kPa	733
13679 kPa	733
13699 kPa	733.1
13723 kPa	732.9
13747 kPa	732.9
13776 kPa	733
13797 kPa	732.9
13819 kPa	733.1
13850 kPa	733
13875 kPa	733.2
13903 kPa	733.1
13931 kPa	733.1
13957 kPa	733.1
13985 kPa	733.2
14017 kPa	733.2
14039 kPa	733.2
14064 kPa	733.2
14097 kPa	733.2
14129 kPa	733.3
14154 kPa	733.3
14184 kPa	733.4
14209 kPa	733.3
14239 kPa	733.4
14262 kPa	733.4

From the NIST ThermoML archive (doi:10.1021/je800110r)
